# From patent US20060252698A1, “Compounds for inhibiting cathepsin activity” (priority 2005, published 2006)
# Starred links: 1 amine or outer side, 2 acyl side, 3 side chain; linkers in the order of their positions; H or OH if unused. Non-standard residues stand in square brackets, D forms with d. Residues, ends and D or L forms follow the SMILES beside them. *: point of attachment. Hyp = O=C(O)[C@@H]1C[C@@H](O)CN1; X2 = CCCC(N[*:1])C(=O)C(=O)[*:2]; Tic = O=C(O)[C@@H]1Cc2ccccc2CN1; Chg = N[C@H](C(=O)O)C1CCCCC1; Phg = N[C@H](C(=O)O)c1ccccc1; Tle = CC(C)(C)[C@H](N)C(=O)O; Boc = CC(C)(C)OC(=O)*; CO = O=C([*:1])[*:2]; X1 = CC1(N*)CCCCC1; tBu = CC(C)(C)*
# Molecular target: T1, Human Liver Cathepsin L (Homo sapiens, UniProt P07711)
# T1 construct: purchased Calbiochem 219402
# T1 sequence (P07711 114-288 limits assumed): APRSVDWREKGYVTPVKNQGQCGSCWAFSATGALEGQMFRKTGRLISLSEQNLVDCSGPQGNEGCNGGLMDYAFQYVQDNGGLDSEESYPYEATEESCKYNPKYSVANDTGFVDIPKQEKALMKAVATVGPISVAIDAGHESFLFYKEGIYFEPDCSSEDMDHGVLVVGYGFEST
# T1 sequence (P07711 292-333 limits assumed): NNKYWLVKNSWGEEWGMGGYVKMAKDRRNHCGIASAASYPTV
# Test: Cathepsin L inhibition assay (kinetic, Z-Phe-Arg-pNA substrate)
# Format: biochemical
# Details: Z-Phe-Arg-pNA 120 μM, enzyme 12 nM, pH 5.5, read at 410 nm
# Experimental: Cathepsin Assay Protocols:
# • 1. 96-well Round or V-bottom microplates for dilutions • 2. 96-well COSTAR UV microplates for assay (COSTAR cat.#3635) • 3. Bio-Spin 6 Chromatography Columns (BIO-RAD cat.#732-6002). • 4. 12-75 mm test tubes • 5. Falcon 50 ml tubes • 6. Falcon 14 ml tubes • 7. 1.5 ml eppendorf tube • 8. ≦10 ml buffer reservoir Reagents: • 1. Enzyme: Cathepsin G, M.W.23,500, 10 μM stock. • 2. Substrate:Suc-Ala-Ala-Pro-Phe-pNA, M.W. 624.65, prep. 100 mM [62.465 mg/ml] stock. • 3. Buffer: [50 mM HEPES, 500 mM NaCl, 5 μM EDTA, pH 7.14], 5 μM DTT Instrument Settings: SpectraMax Plus • 1. Kinetic assay reading@405 nm • 2. Read interval: 30 seconds • 3. Time: 1 hour • 4. OD Min: −0.001 • 5. OD Max: 0.5 • 6. Data Mode: Absorbance • 7. e405=194.078 μM/O.D. Procedure: • 1. Add 73 μl of buffer to all wells. • 2. Add […] of buffer to (−E) controls. • 3. Add 7 μl of sample and/or DMSO for controls to appropriate wells. • 4. Prep. substrate: 100 mM (62.465 mg/ml) stock in 100% DMSO. • 5. Dilute 1:20 in buffer. 75 μl in 1.425 ml. 5 mM final. • 6. Add 20 μl of 5 mM substrate to all wells. 500 μM final. • 7. Dilute enzyme (1:50) in buffer; Add 120 μl to 5,880 μl buffer. 2×[200 nM] final. • 8. Add 100 μl of 2× [200 nM] enzyme to assigned wells, except (−E) controls. [100 nM] final. • 11. Vortex 20 seconds. Read@ 405 nM every 30 seconds for 1 hour on SpectraMax Plus • Endpoint assay reading plate@ 600 nM. Used for the detection of precipitation. Cathepsin H: Materials: • 1. 96-well Round or V-bottom microplates for dilutions • 2. 96-well COSTAR UV microplates for assay (COSTAR cat.#3635) • 3. Bio-Spin 6 Chromatography Columns (BIO-RAD cat.#732-6002) • 4. 12-75 mm test tubes • 5. Falcon 50 ml tubes • 6. Falcon 14 ml tubes • 7. 1.5 ml eppendorf tube • 8. ≧10 ml buffer reservoir Reagents: • 1. Enzyme: Cathepsin H, M.W.28,000, 9.07 μM stock. • 2. Substrate:H-Arg-pNA, M.W. 367.2, prep. 50 mM [18.36 mg/ml] stock. • 3. Buffer: [100 mM NaP04, 1 mM EDTA, 1 mM DTT, pH 6.5 Instrument Settings: SpectraMax Plus • 1. Kinetic assay reading@410 nM • 2. Read interval: 30 seconds • 3. Time: 1 hour • 4. OD Min: −0.001 • 5. OD Max: 0.05 • 6. Data Mode: Absorbance • 7. e410=188.415 μM/O.D. Km=108±5 μM Procedure: • 1. Prep. substrate: 50 mM (18.36 mg/ml) stock in 100% DMSO. • 2. Add 73 μl of buffer to all wells. • 3. Add 7 μl of sample to appropriate wells: a.) 100% DMSO for (+E) & (−E) controls. • 4. Add 100 μl of buffer to (−E) controls. • 5. Dilute substrate (1:20) in buffer; Add 140 μl to 2.66 ml buffer while vortexing. [2.5 mM] final. • 6. Add 20 μl of substrate to all wells. Vortex 3-5 seconds. [250 μM] final. • 7. Dilute enzyme (1:64.8) in buffer; Add 179 μl to 11.418 ml buffer. 2× [140 nM] final. • 8. Add 100 μl of 2× [140 nM] enzyme to assigned wells, except (−E) controls. [70 nM] final. • 9. Read@410 nM every 30 seconds for 1 hour on SpectraMax Plus Cathepsin L: Materials: • 1. 96-well Round or V-bottom microplates for dilutions • 2. 96-well COSTAR UV microplates for assay (COSTAR cat.#3635) • 3. Falcon 50 ml tubes • 4. Falcon 14 ml tubes • 5. 1.5 ml eppendorf tube • 6. 10 ml buffer reservoir Reagents: • 1. Enzyme: Calbiochem #219402: Cathepsin L, M.W.29,000, 11.62 μM stock. Lot#B45683 • 2. Substrate: Bachem #L-1242: Z-Phe-Arg-pNA, M.W. 612.09, prep. 4.8 mM [2.938 mg/ml] stock in 100% DMSO. • 3. Buffer: [100 mM NaP04, 1 mM EDTA, pH 5.5] Supplement buffer w/1 mM DTT, day of assay. Experiment #1: • Instrument settings: SpectraMax Plus microtiter plate reader (Molecular Devices, Sunnydale, Calif.) • 1. Kinetic assay reading@410 nM • 2. Read interval: 30 seconds • 3. Time: 1 hour • 4. OD Min: −0.001 • 5. OD Max: 0.05 • 6. Data Mode: Absorbance • 7. ε410=161.311 μM/O.D. Km=56±8 μM Procedure: • 1. Add 88 μl of buffer to all wells. • 2. Add 7 μl of sample or 100% DMSO to appropriate wells. • 3. Add 100 μl of buffer to (−E) controls. • 5. Add 5 μ 4.8 mM] substrate to all wells. [120 μM] final. • 6. Vortex 3-5 seconds. • 7. Dilute enzyme (1:483.87) in buffer; Add 24.8 μl to 12,000 μl buffer. 2×[24 nM] final. • 8. […]
row,Structure (SMILES),Ki
1,CN(C)C(=O)[C@@H](NC(=O)CNC(=O)C(=O)C(CC1CC1)NC(=O)[C@@H]1[C@H]2CC(C)(C)O[C@H]2CN1C(=O)[C@@H](NC(=O)OC(C)(C)C)C1CCCCC1)c1ccccc1 (stereo partly shown),97 nM
2,C=CCNC(=O)C(=O)[C@@H]1CCCCCCCCC[C@H](NC(=O)NC2(CS(=O)(=O)C(C)(C)CC)CCCCC2)C(=O)N2C[C@H]3[C@@H]([C@H]2C(=O)N1)C3(C)C,230 nM
3,C=CCNC(=O)C(=O)C(CCC)NC(=O)[C@@H]1[C@@H]2[C@H](CN1C(=O)[C@@H](NC(=O)N[C@H](CN1CCCCC1=O)C(C)(C)C)C1Cc3ccccc3C1)C2(C)C (stereo partly shown),140 nM
4,CC(C)(C)NC(=O)N[C@H]1CCCCCCCCCC[C@@H](C(=O)C(N)=O)NC(=O)[C@@H]2[C@@H]3[C@H](CN2C1=O)C3(C)C,300 nM
5,CCCNC(=O)C(=O)[C@@H]1CCCCCCCCC[C@H](NC(=O)NC2(CS(=O)(=O)C(C)(C)C)CCCCC2)C(=O)N2C[C@H]3[C@@H]([C@H]2C(=O)N1)C3(C)C,330 nM
6,CCCC[C@H](NC(=O)[C@@H]1[C@@H]2[C@H](CN1C(=O)[C@@H](NC(=O)NC1([C@H]3CCCS3(=O)=O)CCCCC1)C(C)(C)C)C2(C)C)C(=O)C(=O)NC1CC1,80 nM
7,C=CCNC(=O)C(=O)[C@@H]1CCCCCCCCC[C@H](NC(=O)N[C@H](CN2CCC(C)(C)CC2=O)C(C)(C)C)C(=O)N2C[C@H]3[C@@H]([C@H]2C(=O)N1)C3(C)C,366 nM
8,C=CCNC(=O)C(=O)C(CCC)NC(=O)[C@@H]1CCCN1C(=O)[C@@H](NC(=O)NC1(CS(C)(=O)=O)CCCCC1)C(C)(C)C (stereo partly shown),740 nM
9,CCCC[C@H](NC(=O)[C@@H]1[C@@H]2[C@H](CN1C(=O)[C@@H](NC(=O)NC1(CS(=O)(=O)C(C)(C)C)CCCCC1)C(C)(C)C)C2(C)C)C(=O)C(=O)NC1CC1 [drawing 667],40 nM
10,CCCC(NC(=O)[C@@H]1Cc2ccccc2CN1C(=O)[C@@H](NC(=O)OC(C)(C)C)C1CCCCC1)C(=O)C(=O)NCC(=O)N[C@H](C(=O)NC)c1ccccc1 (stereo partly shown) (Boc-[Chg][Tic][X2]G[Phg]-NHMe),36 nM
11,CCCC(NC(=O)[C@@H]1C[C@@H](OC(C)(C)C)CN1C(=O)[C@@H](NC(=O)NC1(C)CCCCC1)C(C)(C)C)C(=O)C(=O)NCC(=O)N[C@H](C(=O)N(C)C)c1ccccc1 (stereo partly shown) ({X1-CO}-[Tle][Hyp](tBu)[X2]G[Phg]-NMe2),170 nM
12,CN(C)C(=O)c1nc(CNC(=O)C(=O)C(CC2CCC2)NC(=O)[C@@H]2[C@@H]3[C@H](CN2C(=O)[C@@H](NC(=O)NC(C)(C)C)C(C)(C)C)C3(C)C)sc1-c1ccccc1 (stereo partly shown),190 nM
13,CCCC(NC(=O)[C@@H]1C[C@@H]2CN1C(=O)C(C1CCCCC1)NC(=O)Cc1cccc(c1)OCCCC(C)(C)C2)C(=O)C(N)=O (stereo partly shown),17 nM
14,C=CCNC(=O)C(=O)[C@H](CCCC)NC(=O)[C@@H]1[C@@H]2[C@H](CN1C(=O)[C@@H](NC(=O)NC1([C@H]3CCCS3(=O)=O)CCCCC1)C(C)(C)C)C2(C)C [drawing 672],49 nM
15,CC(C)(C)[C@H](NC(=O)NC1(CS(=O)(=O)C(C)(C)C)CCCCC1)C(=O)N1C[C@H]2[C@@H]([C@H]1C(=O)N[C@@H](CCC1CC1)C(=O)C(=O)NC1CC1)C2(C)C [drawing 662],25 nM
16,CC1([C@H](NC(=O)NC2(C3CCCS3(=O)=O)CCCCC2)C(=O)N2C[C@H]3[C@@H]([C@H]2C(=O)N[C@@H](CCC2CC2)C(=O)C(=O)NC2CC2)C3(C)C)CCCCC1 (stereo partly shown),24 nM
17,C=CCCC(NC(=O)[C@H]1C(C(=O)[C@@H](NC(=O)OC(C)(C)C)C2CCCCC2)C[C@@H]2C[C@@H]21)C(=O)C(=O)NCC=C (stereo partly shown),1500 nM
18,CC1(C)[C@@H]2[C@H]3C(=O)N[C@H](C(=O)C(=O)NC4CC4)CCCCCCCCC[C@H](NC(=O)NC4(C5CCCS5(=O)=O)CCCCC4)C(=O)N3C[C@@H]21 (stereo partly shown),110 nM
19,CC(=O)N[C@@H](CC(C)C)C(=O)N[C@@H](CC(C)C)C(=O)N[C@H](C=O)CCCNC(=N)N [drawing 689],8 nM
20,CC(C)(C)OC(=O)N[C@H](C(=O)N1CCC[C@H]1C(=O)NC(CC1CCC1)C(=O)C(N)=O)C(C)(C)C (stereo partly shown),1900 nM
21,C=CCNC(=O)C(=O)[C@H](CCC1CC1)NC(=O)[C@@H]1[C@@H]2[C@H](CN1C(=O)[C@@H](NC(=O)NC1(CS(=O)(=O)C(C)(C)C)CCCCC1)C(C)(C)C)C2(C)C [drawing 669],40 nM
22,C=CCNC(=O)C(=O)[C@@H]1CCCCCCCCC[C@H](NC(=O)NC2(CS(=O)(=O)C(C)(C)C)CCCCC2)C(=O)N2C[C@H]3[C@@H]([C@H]2C(=O)N1)C3(C)C [drawing 653],10 nM
23,C=CCNC(=O)C(=O)[C@@H]1CCCCCCCCC[C@H](NC(=O)NC2(CS(=O)(=O)C(C)(C)C)CCCCC2)C(=O)N2C[C@H]3[C@@H]([C@H]2C(=O)N1)C3(C)C [drawing 699],60 nM
24,CN(C[C@@H](NC(=O)N[C@H](C(=O)N1C[C@H]2[C@@H]([C@H]1C(=O)N[C@@H](CC(F)F)C(=O)N[C@@H]1C[C@@H]1c1ccccc1)C2(C)C)C(C)(C)C)C(C)(C)C)S(C)(=O)=O,530 nM
25,CCC[C@H](NC(=O)[C@@H]1[C@@H]2[C@H](CN1C(=O)[C@@H](NC(=O)NC1([C@H]3CCCS3(=O)=O)CCCCC1)C1(C)CCCCC1)C2(C)C)C(=O)C(=O)NC1CC1,31 nM
26,CCCC(NC(=O)[C@@H]1[C@@H]2CCN1C(=O)[C@H](C(C)(C)C)NC(=O)Cc1cccc(c1)OCCCO2)C(=O)C(=O)NCC(=O)N[C@H](C(=O)N(C)C)c1ccccc1 (stereo partly shown),70 nM
27,CC(C)(C)[C@H](NC(=O)NC1(CS(=O)(=O)C(C)(C)C)CCCCC1)C(=O)N1C[C@H]2[C@@H]([C@H]1C(=O)N[C@@H](CCC1CC1)C(=O)C(=O)NC1CC1)C2(C)C [drawing 671],47 nM

# Test system: melanoma A375 tumors
# Test: not given
# Details: melanoma A375 tumors implanted into the left ventricle of the heart; cited from earlier work
row,Structure (SMILES),distant bone metastasis to the femur and tibia
1,CN(C)C(=O)[C@H](Cc1ccccc1)NC(=O)[C@H]1O[C@@H]1C(=O)NCCc1ccccn1 [CLIK-148],reduced distant bone metastasis
